Earlier results on one compound are cited in patent US20100255080A1, “Liposomal ALA pharmaceutical and cosmeceutical compositions and methods of treatment” (SESVALIA USA, LLC, priority 2009, published 2010).

The structures appear in SMILES notation.

The conditions of the series: printed as the pH near the pka.

For `Cl.NCC(=O)CCC(=O)O` [ALA, 5-aminolevulinic acid], the pka result is reported as “about 4”.
